# From patent US20250161255A1, “NEW THERAPY AND PREVENTION FOR SUPPRESSING AGING-RELATED DISORDERS INCLUDING SARCOPENIA” (priority 2022, published 2025)
# Counter-ions that a name gives are not always drawn.
# Assays:
# aged mice (C57BL/6J) = experiment: Treadmill test of muscle strength (endurance) in aged mice; assay type: in vivo, mouse; conditions: vs PBS
# Excerpt: To confirm that muscle strength decline would be observed in model mice (C57BL/6J) (purchased from ORIENTAL YEAST), muscle strength (endurance) in 79-week-old aged mice was checked in a treadmill test as follows.
# Before recording performance, the mice were trained for three days so as to become familiarized with the equipment. An electrical stimulation grid was adjusted to 1 mA and the gradient was set to 15 degrees. On the first day of training, the mice were made to walk on the treadmill for 10 min at a speed of 10 m/min, rest for 10 min, and then walk for 10 min at a speed of 10 m/min. On the second and third days, the first two steps were performed under the same conditions as on the first day, after which walking was started at 10 m/min, and then increasing the speed by 1 m/min each minute up to a maximum speed of 20 m/min. Maximum exercise endurance was measured on the fourth day. Six mice were placed on the treadmill and the belt speed was started at 5 m/min for 5 min to warm up the mice. The speed was increased by 1 m/min to a maximum of 20 m/min. After 5 minutes of running, the speed was increased from 20 m/min to 21 m/min for 10 minutes. The mice were then forced to run at 22 m/min until they remained on the electrical stimulation grid for 10 seconds, and the distance they ran until they remained for 10 seconds was measured. […]
# [1] = Body weight and behaviour observed during the administration period; assay type: in vivo, mouse
# Procedure: L-ethylcysteine hydrochloride was orally administered to aged mice from 40 to 79 weeks of age. The dose was 1000 mg/kg/day.
# Ambroxol hydrochloride was orally administered to aged mice from 50 to 77 weeks of age. The dose was 9.21 mg/kg/day.
# [2] = tested on: gene expression in (gastrocnemius or soleus) muscle; experiment: Genetic analysis (RNA-seq) of muscle of administered aged mice; assay type: in vivo, mouse; conditions: FDR <0.05
# Excerpt: The procedure and reagents used are as follows. The quality of all reads was checked using FastQC v0.11.8 and low-quality reads were removed using Trimmomatic (ver 0.38). LEADING: 20 (cut bases off the start of a read if quality score is less than 20), TRAILING: 20, SLIDING WINDOW: 4:15 (window size 4, average quality 15), MINLEN: 36 (drop reads if the length is less than […]) Each read obtained after filtering was mapped to the reference genome GRCm38 using STAR (ver2.7.0.f). Mapping was performed using the default values of STAR. Since the reads were paired-end with a length of 150 bp, a STAR index for reference genome GRCm38 was created in accordance with the length of 150 to perform mapping. Index generation was performed as follows: • Run Mode; genomeGenerate • Reference; GRCm38 • Annotation file; genecode version M24 • sjdbOverhang; 150 • alignment was performed using the index generated above. • Other than the foregoing, no options were added and the default values were used. • (Basic options were as follows.) • genomeDir; index generated above […] At this time, gene symbols as defined in genecode version M24 were counted. Regarding the calculated count numbers, genes with count data of 0 in all samples were filtered, TMM normalization was performed using edgeR (ver3.22.3), and correction between samples was performed. First, to obtain an overview of the data, principal component analysis and clustering analysis were performed using the count data after removing low-expressing genes. Expression changes of the specified patterns were compared based on the obtained expression values. edgeR was used to test for differentially expressed genes. […] Gene enrichment analysis was performed on the obtained variable genes using gprofiler2 (version 0.1.6). The expression values of the obtained differentially expressed genes were normalized, then extracted and visually depicted as a heat map to confirm the differential expressions. […] This analysis was performed using […] 1.8.0). In […], analysis was performed using a mouse database relating to 10 kbp upstream the TSS, stored in […]. Details of the analysis are as follows (cited from https://scenic.aertslab.org/tutorials/[…]). In the present example, gene regulation involved in the ambroxol hydrochloride of the present invention was investigated using model mice to identify genes useful for the diagnosis and treatment of sarcopenia, in the same manner as in Example 1. […] From the analysis of upstream transcription factors shown in FIG. 12, new transcription factors involved in differentiation and cellular senescence were observed as upstream factors.
# aged mice [3] = experiment: Contextual fear conditional (CFC) test of fear memory; assay type: in vivo, mouse; conditions: 77-week-old aged mice after ambroxol hydrochloride administration; vs PBS; FIG. 8
# Procedure: Cognition and memory of the 77-week-old aged mice of Example 2-2 were evaluated by means of a contextual fear conditional (CFC) test. In the cognition and memory experiment, memory is evaluated in two ways: fear memory and spatial memory; fear memory is evaluated based on the time the subject freezes and stops moving after receiving an electric shock. […] Regarding spatial memory, when a mouse is placed on a white disk and a strong light is illuminated thereon, the mouse, which is nocturnal, will try to escape to a dark place. The disk has 20 holes, of which 19 are blocked and only one through which escape is possible. The mouse is then trained for six days to memorize the location of that one hole. The degree to which the mouse could remember the location of the hole was evaluated one day later and one week later (reference: https://www.nature.com/protocolexchange/protocols/349Reiserer).
# In this example, fear memory was evaluated using the CFC test. Fear memory was assessed by CFC after administration of ambroxol hydrochloride to 77-week-old, aged mice of Example 2-2.
# C2C12 cells = experiment: Gene expression in cultured C2C12 cells, treated versus untreated; assay type: cell-based, mouse; conditions: treated vs untreated cells; Q<0.05; FIG. 13
# Procedure: C2C12 cells, which are derived from striated muscle of mice, were cultured and treated with ambroxol hydrochloride.
# model mice (C57BL/6J) [4] = experiment: Frailty index test; assay type: in vivo, mouse
# Procedure: The above model mice were orally administered 1000 mg/kg/day of ambroxol hydrochloride from 50 to 81 weeks of age, and frailty associated with aging was confirmed by means of a frailty index test. The evaluated items of the frailty index test are as follows, and an evaluation standard in accordance with clinical symptoms (0=no symptoms, 0.5=mild symptoms, 1=severe symptoms) was employed. • Hair, skin • Alopecia Whether there is hair loss • Loss of fur color Change in fur color from black to gray, brown, or white • Dermatitis Whether there is skin inflammation • Loss of whiskers Loss of hair and whiskers around nose • Coat condition Condition of coat, smoothness and shine of fur • Physical/musculoskeletal • Tumors Presence/absence of tumor • Distended abdomen Abdomen enlarged compared to surrounding • Kyphosis Check by stroking back • Tail stiffening Whether tail wraps freely when stroked, stiffness • Gait disorder Difficulty in walking, wide stance • Tremor Whether there are age-related tremors • Forelimb grip strength Strength of grip on wire mesh when pulled by the tail • Body condition score Check visual signs of bony protuberance, muscle wasting, obesity • Vestibulocochlear/auditory • Vestibular disturbance Balance, orientation, acceleration • Hearing loss Whether there is response when clicker is sounded from behind • Ocular/nasal • Cataracts Clouding of lens of eye • Corneal opacity Cloudy cornea • Eye discharge/swelling Eyes swollen, abnormal secretions or crusting • Microphthalmia One or both eyes are small and/or sunken • Vision loss Whether the mouse reaches toward the ground when lowered by the tail (also use a ruler) • Menace reflex Whether there is response when foreign object is brought near eyes • Nasal discharge Whether there is nasal discharge • Digestive/urogenital • Malocclusion Whether there are malocclusions or overgrown teeth • Rectal prolapse Whether there is protrusion of rectum • Vaginal/uterine/penile prolapse Check genitals • Diarrhea Check cage bedding • Respiratory • Breathing rate/depth Check for dyspnea, breath sounds (rales), tachypnea, • Discomfort • Mouse Grimace Scale Assess nose bulge, cheek bulge, ear angle, whisker change • Piloerection Whether there is stiff hair or bristling even when stroked • Other (compared to reference values) • Temperature Take average of two readings • Weight Measure weight
# (§1) Grip strength was evaluated by means of a measurement of grip strength called the grip test, using a muscle strength measuring device (Muromachi Kikai, MK-380S). Specifically, the mouse was made to grasp a mesh made of wire (wire mesh) with its front and back legs, and its tail was pulled back horizontally little by little until the mouse released the wire mesh. The maximum muscle strength at that time was measured.
# The above model mice were given 307.2 mg/kg/day of L-carbocysteine in drinking water for 23 weeks starting at the age of 49 weeks, and frailty index test was performed as in Example 2-5 above to confirm age-related frailty and the like.
# model mice (C57BL/6J) [5] = experiment: Grip test with muscle strength measuring device (MK-380S); assay type: in vivo, mouse; conditions: oral 1000 mg/kg/day from 50 to 81 weeks of age; FIG. 19
# Procedure: as §1
# aged mice [6] = experiment: Muscle mass in aged mice, with or without exercise; assay type: in vivo, mouse
# [7] = mice administered ambroxol hydrochloride, FIG. 9
# [8] = aged mice administered L-ethylcysteine hydrochloride, FIG. 2
smiles,measurement,setting,value
"Nc1c(Br)cc(Br)cc1CNC1CCC(O)CC1 (stereo not shown) [Ambroxol hydrochloride, ambroxol hydrochloride]",muscle strength (endurance) by treadmill test,"aged mice (C57BL/6J); oral 9.21 mg/kg/day from 50 to 77 weeks of age, measured at 77 weeks, FIG. 7",increase in muscle strength
same,changes in body weight or behavioral abnormalities during administration,"[1]; oral 9.21 mg/kg/day, 50 to 77 weeks of age",no significant changes in body weight or behavioral abnormalities
same,number of genes with decreased expression in muscle,[2]; [7],204 genes
same,number of genes with increased expression in muscle,[2]; [7],164 genes
same,CFC Freezing scores / cognitive performance,aged mice [3],improved CFC Freezing scores and increased cognitive performance
same,number of genes with decreased expression in C2C12 cells,C2C12 cells,54 genes
same,number of genes with increased expression in C2C12 cells,C2C12 cells,53 genes
same,frailty index: coat condition,model mice (C57BL/6J) [4]; oral 1000 mg/kg/day from 50 to 81 weeks of age,improved
same,"frailty index: skin condition (hair, skin)","model mice (C57BL/6J) [4]; oral 1000 mg/kg/day from 50 to 81 weeks of age, FIG. 18",improved
same,frailty index: osteoporosis (physical/musculoskeletal),"model mice (C57BL/6J) [4]; oral 1000 mg/kg/day from 50 to 81 weeks of age, FIG. 20",improved
same,muscle strength (grip strength),model mice (C57BL/6J) [5],improved
N[C@@H](CSCC(=O)O)C(=O)O [L-carbocysteine],frailty index: dermatitis,model mice (C57BL/6J) [4]; 307.2 mg/kg/day in drinking water for 23 weeks from 49 weeks of age,improves
same,frailty index: alopecia,"model mice (C57BL/6J) [4]; 307.2 mg/kg/day in drinking water for 23 weeks from 49 weeks of age, FIG. 22",improves
same,frailty index: fur color loss (gray hair),"model mice (C57BL/6J) [4]; 307.2 mg/kg/day in drinking water for 23 weeks from 49 weeks of age, FIG. 23",improves
same,frailty index: physical condition score (bone and muscle),"model mice (C57BL/6J) [4]; 307.2 mg/kg/day in drinking water for 23 weeks from 49 weeks of age, FIG. 25",improvement in physical condition
same,total score of the frailty index test,"model mice (C57BL/6J) [4]; 307.2 mg/kg/day in drinking water for 23 weeks from 49 weeks of age, FIG. 26",improvement in the total value
CCOC(=O)[C@@H](N)CS [L-ethylcysteine hydrochloride],muscle strength (endurance) by treadmill test,"aged mice (C57BL/6J); oral 1000 mg/kg/day from 40 to 79 weeks of age, measured at 79 weeks, FIG. 1",increase in muscle strength
same,changes in body weight or behavioral abnormalities during administration,"[1]; oral 1000 mg/kg/day, 40 to 79 weeks of age",no significant changes in body weight or behavioral abnormalities
same,muscle mass in aged mice,aged mice [6]; administration alone,increased muscle mass
same,muscle mass in aged mice,aged mice [6]; administration in combination with exercise,significantly restored muscle mass
same,number of genes with decreased expression in muscle,[2]; [8],92 genes
same,number of genes with increased expression in muscle,[2]; [8],158 genes
